Laboratory results as given in patent publication US20250304571A1, “BIOLOGICALLY ACTIVE COMPOUNDS AND METHODS THEREOF” (Suzhou Keen Therapeutics Co., Ltd., priority 2022, published 2025).

These compounds were tested on 786-O (renal cell carcinoma) cells (assay: Cell viability (CellTiter Glo) assay, inhibition of 786-O cell proliferation). Conditions: 786-O cells, 72 hours, CellTiter Glo; read-out: IC50, inhibition of 786-O cell proliferation.
Type: cell-based

IC50 [nM] | SMILES
> 5000 | CNc1nc([C@H](C)OC(=N)N2CCC[C@@H]2C(F)(F)F)nc2c1C(C)(C)C(=O)N2c1ccc(N2CCOCC2)cc1 [Compound E180]
> 5000 | CNc1nc([C@@H](C)OC(=N)N2CCC[C@@H]2C(F)(F)F)nc2c1C(C)(C)C(=O)N2c1ccc(N2CCOCC2)cc1 [Compound E181]
100 to 500 | N=C(OCc1nc(NC2CC2)c2c(n1)N(c1cc(F)cc(F)c1)C(=O)C21CCCC1)N1CCC[C@@H]1C(F)(F)F [Compound E206]

SMILES | IC50 [nM]
CNc1nc(COC(=N)N2CCCC2C(F)(F)F)nc2c1C(C)(C)C(=O)N2c1ccc2c(c1)CCCO2 (stereo not drawn) [Compound E182] | < 100

Same assay, conditions: Homo sapiens, 786-0, 72 h, read-out: IC50, inhibition of 786-O cell proliferation

SMILES | IC50 [nM]
CC(C)Nc1nc(COC(=N)N2CCCC2C(F)(F)F)nc2c1C(C)(C)C(=O)N2c1ccc(N2CCOCC2)cc1 (stereo not drawn) [Compound E176, (4-(Isopropylamino)-5,5-dimethyl-7-(4-morpholinophenyl)-6-oxo-6,7-dihydro-5H-pyrrolo[2,3-d]pyrimidin-2-yl)methyl 2-(trifluoromethyl)pyrrolidine-1-carbimidate] | < 100
C[C@@H]1CN(c2ccc(N3C(=O)C(C)(C)c4c(NCC(F)F)nc(COC(=N)N5CCC[C@@H]5C(F)(F)F)nc43)cc2)C[C@H](C)O1 [Compound E203] | 100 to 500
CC(C)Nc1nc(COC(=N)N2CCC[C@@H]2C(F)(F)F)nc2c1C1(CCCC1)C(=O)N2c1cnc(N2CCCCC2)nc1 [Compound E211] | < 100
CC(C)Nc1nc(COC(=N)N2CCC[C@@H]2C(F)(F)F)nc2c1C1(CCCC1)C(=O)N2c1ccc(F)c(F)c1 [Compound E212] | < 100

Same assay, conditions: Homo sapiens, 786-0; 786-O cells, 72 hours, CellTiter Glo; read-out: IC50, inhibition of 786-O cell proliferation

SMILES | IC50 [nM]
CNc1nc(COC(=N)N2CCCC2C(F)(F)F)nc2c(-c3ccc(N4CCOCC4)cc3)csc12 (stereo not drawn) [Compound E179, (4-(Methylamino)-7-(4-morpholinophenyl)thieno[3,2-d]pyrimidin-2-yl)methyl 2-(trifluoromethyl)pyrrolidine-1-carbimidate] | < 100
CNc1nc(COC(=N)N2CCC[C@H]2C(F)(F)F)nc2c1C(C)(C)C(=O)N2c1ccc(N2C[C@@H](C)O[C@@H](C)C2)nc1 [Compound E183] | 100 to 500
CNc1nc(COC(=N)N2CCC[C@@H]2C(F)(F)F)nc2c(-c3ccc(N4CCOCC4)cc3OC)coc12 [Compound E184, (7-(2-Methoxy-4-morpholinophenyl)-4-(methylamino)furo[3,2-d]pyrimidin-2-yl)methyl (R)-2-(trifluoromethyl)pyrrolidine-1-carbimidate] | < 100
CNc1nc(COC(=N)N2CCC[C@@H]2C(F)(F)F)nc2c1C(C)(C)C(=O)N2c1ccc2c(c1)CCCO2 [Compound E185] | < 100
C[C@@H]1CN(c2ccc(N3C(=O)C(C)(C)c4c(N)nc(COC(=N)N5CCC[C@@H]5C(F)(F)F)nc43)cn2)C[C@H](C)O1 [Compound E186, (4-amino-7-(6-((2S,6R)-2,6-dimethylmorpholino)pyridin-3-yl)-5,5-dimethyl-6-oxo-6,7-dihydro-5H-pyrrolo[2,3-d]pyrimidin-2-yl)methyl (R)-2-(trifluoromethyl)pyrrolidine-1-carbimidate] | < 100
[2H]C([2H])([2H])Nc1nc(COC(=N)N2CCC[C@@H]2C(F)(F)F)nc2c1C(C)(C)C(=O)N2c1ccc(N2C[C@@H](C)O[C@@H](C)C2)nc1 [Compound E187, (7-(6-((2S,6R)-2,6-Dimethylmorpholino)pyridin-3-yl)-5,5-dimethyl-4-((methyl-d3)amino)-6-oxo-6,7-dihydro-5H-pyrrolo[2,3-d]pyrimidin-2-yl)methyl (R)-2-(trifluoromethyl)pyrrolidine-1-carbimidate] | 100 to 500
C[C@@H]1CN(c2ccc(N3C(=O)C(C)(C)c4c(NC5CC5)nc(COC(=N)N5CCC[C@@H]5C(F)(F)F)nc43)cn2)C[C@H](C)O1 [Compound E188, (4-(Cyclopropylamino)-7-(6-((2S,6R)-2,6-dimethylmorpholino)pyridin-3-yl)-5,5-dimethyl-6-oxo-6,7-dihydro-5H-pyrrolo[2,3-d]pyrimidin-2-yl)methyl (R)-2-(trifluoromethyl)pyrrolidine-1-carbimidate] | < 100
C[C@@H]1CN(c2ccc(N3C(=O)C(C)(C)c4c(N)nc(COC(=N)N(C)CC(F)(F)F)nc43)cn2)C[C@H](C)O1 [Compound E189, (4-amino-7-(6-((2R,6S)-2,6-dimethylmorpholino)pyridin-3-yl)-5,5-dimethyl-6-oxo-6,7-dihydro-5H-pyrrolo[2,3-d]pyrimidin-2-yl)methyl methyl(2,2,2-trifluoroethyl)carbamimidate] | 100 to 500
CCN(CC(F)(F)F)C(=N)OCc1nc(N)c2c(n1)N(c1ccc(N3C[C@@H](C)O[C@@H](C)C3)nc1)C(=O)C2(C)C [Compound E190] | 100 to 500
CC(C)N(CC(F)(F)F)C(=N)OCc1nc(N)c2c(n1)N(c1ccc(N3C[C@@H](C)O[C@@H](C)C3)nc1)C(=O)C2(C)C [Compound E191] | 100 to 500
C#CCN(CC(F)(F)F)C(=N)OCc1nc(N)c2c(n1)N(c1ccc(N3C[C@@H](C)O[C@@H](C)C3)nc1)C(=O)C2(C)C [Compound E192] | 100 to 500
C[C@@H]1CN(c2ccc(N3C(=O)C(C)(C)c4c(N)nc(COC(=N)N(CC(F)(F)F)C5CC5)nc43)cn2)C[C@H](C)O1 [Compound E193] | 100 to 500
CNc1nc(COC(=N)N2CCC[C@@H]2C(F)(F)F)nc2c(-c3ccc(N4C[C@@H](C)O[C@@H](C)C4)nc3)coc12 [Compound E194] | 100 to 500
C[C@@H]1CN(c2ccc(N3C(=O)C(C)(C)c4c(N)nc(COC(=N)N5CC(F)(F)C(F)(F)C5)nc43)cn2)C[C@H](C)O1 [Compound E195] | 100 to 500
CC1(C)C(=O)N(c2ccc(N3CCOCC3)cc2)c2nc(COC(=N)N3CCC[C@@H]3C(F)(F)F)nc(NCC(F)F)c21 [Compound E197] | < 100

The remaining lines, values ahead:

IC50 [nM] | SMILES
< 100 | N=C(OCc1nc(NC2CC2)c2c(n1)N(c1ccc(N3CCOCC3)c(F)c1)C(=O)C21CCCC1)N1CCC[C@@H]1C(F)(F)F [Compound E198]
500 to 5000 | N=C(OCc1nc(C(F)F)c2c(n1)N(c1ccc(N3CCOCC3)cc1)C(=O)C21CCCC1)N1CCC[C@@H]1C(F)(F)F [Compound E199]
< 100 | CC1(C)C(=O)N(c2ccc(N3CCOCC3)c(F)c2)c2nc(COC(=N)N3CCC[C@@H]3C(F)(F)F)nc(NC3CC3)c21 [Compound E200]
< 100 | CCCNc1nc(COC(=N)N2CCC[C@@H]2C(F)(F)F)nc2c1C(C)(C)C(=O)N2c1ccc(N2CCOCC2)cc1 [Compound E201]
500 to 5000 | N=C(OCc1nc2c(c(C(F)(F)F)n1)C1(CCCC1)C(=O)N2c1ccc(N2CCOCC2)cc1)N1CCC[C@@H]1C(F)(F)F [Compound E202]
< 100 | N=C(OCc1nc(NC2CC2)c2c(n1)N(c1cnc(N3CCCCC3)nc1)C(=O)C21CCCC1)N1CCC[C@@H]1C(F)(F)F [Compound E204]
< 100 | N=C(OCc1nc(NC2CC2)c2c(n1)N(c1ccc(F)c(F)c1)C(=O)C21CCCC1)N1CCC[C@@H]1C(F)(F)F [Compound E205]
< 100 | COc1cc(F)ccc1N1CC(C)(C)c2c(NC3CC3)nc(COC(=N)N3CCC[C@@H]3C(F)(F)F)nc21 [Compound E207]
< 100 | COc1cc(F)ccc1N1CC(C)(C)c2c(NCC(F)(F)F)nc(COC(=N)N3CCC[C@@H]3C(F)(F)F)nc21 [Compound E208]
< 100 | N=C(OCc1nc(N)c2c(n1)N(c1ccc(F)c(F)c1)C(=O)C21CCCC1)N1CCC[C@@H]1C(F)(F)F [Compound E209]
